Experiment: Stability studies: storage at room temperature under different relative humidity conditions, checked by XRPD pattern
Format: physicochemical
Conditions: 25° C., 40%, 60%, 80%, 30%, 40% RH, 1 week each
Procedure: The XRPD analyses were carried out on a PANanalytical X'pert Pro X-ray powder diffractometer using Cu Kα radiation. The instrument was equipped with a X'Celerator detector. A theta-two theta continuous scan from 2.5 degrees 2 theta to 40 degrees 2 theta was used. Each sample is prepared for analysis by placing it in a quartz sample holder. The XPRD patterns are reported in terms of degrees 2 theta (°2θ, accuracy ±0.1°), diffraction peak intensity (height, [cts]), full width at half maximum (FWHM, [°2θ]), interatomic spacing in angstroms (d-spacing, [Å]), and relative intensities (%). The relative intensity is recorded as the ratio of the peak intensity to that of the most intense peak.
In order to check its thermodynamic stability, the CHF 4226 crystal form E was stored at room temperature under different relative humidity (RH) conditions: • 40% RH. and 25° C. for 1 week • 60% RH. and 25° C. for 1 week • 80% RH and 25° C. for 1 week • 60% RH and 25° C. for 1 week • 40% RH and 25° C. for 1 week • 30% RH and 25° C. for 1 week • 40% RH and 25° C. for 1 week. The thermodynamic stability of all the samples was checked by recording their XPRD pattern.

COc1ccc(C[C@@H](C)NC[C@H](O)c2ccc(O)c3[nH]c(=O)ccc23)cc1.Cl [CHF 4226 crystal form E, 8-hydroxy-5-[(1R)-1-hydroxy-2-[[(1R)-2-(4-methoxyphenyl)-1-methylethyl]amino]ethyl]-2(1H)-quinolinone monohydrochloride]
thermodynamic stability (XPRD pattern) after storage: stable features under all stability screening conditions

Reference: patent publication US20090280067A1, “CRYSTAL FORM OF 8-HYDROXY-5-[(1R)-1-HYDROXY-2-[[(1R)-2-(4-METHOXYPHENYL)-1-METHYLETHYL]AMINO]ETHYL]-2(1H)-QUINOLINONE MONOHYDROCHLORIDE” (Chiesi Farmaceutici S.p.A., priority 2008, published 2009)
